Values of other authors, collected in the CATMoS acute toxicity set (Mansouri et al. 2021).
Values joined by “and” are separate entries in the source; they are usually repeats but may differ in a detail not shown here. Identical values can stand only once.

Assay: rat acute oral toxicity
Conditions: in vivo

CC(C)Cc1ccc(C(C)C(=O)OCc2ccccn2)cc1 (centres undefined)
LD50: 1440 mg/kg

O=S(=O)(O)c1ccc2c(c1)-c1nc-2nc2[nH]c(nc3nc(nc4[nH]c(n1)c1ccccc41)-c1ccccc1-3)c1ccccc21
LD50: 3600 mg/kg

CC=Cc1ccc(O)c(OC)c1
LD50: 1560 mg/kg

CN(C)C(=S)SSC(=S)N(C)C
LD50: 560 mg/kg

C=CCCC(=O)Cl
LD50: 470 mg/kg

CC(=O)ON(C(=O)OC(C)C)c1ccccc1
LD50: 3400 mg/kg

CC1(C)S[C@@H]2[C@H](NC(=O)C(C(=O)Oc3ccccc3)c3ccccc3)C(=O)N2[C@H]1C(=O)O (some centres undefined)
LD50: 10000 mg/kg

CC/C=C1/OC(=O)c2ccccc21
LD50: 1650 mg/kg

CC(C)=CCl
LD50: 4460 mg/kg

C[C@]12CCC(=O)C=C1C=C[C@@H]1[C@@H]2CC[C@@]2(C)[C@H]1CC[C@@]2(O)CCC(=O)O
LD50: 650 mg/kg

COc1cc2ccc(=O)oc2cc1O
LD50: 3800 mg/kg

ClC1=C(Cl)C2(Cl)C3C4C=CC(O4)C3C1(Cl)C2(Cl)Cl (centres undefined)
LD50: 68 mg/kg

C=C(C)CNc1ccc(C(C)C(=O)O)cc1 (centres undefined)
LD50: 550 mg/kg

NCc1ccc(S(N)(=O)=O)cc1
LD50: 9210 mg/kg

CCOc1ccc(-c2ccccc2)cc1CN1CCCC1
LD50: 30 mg/kg

COC(=O)C=CC(=O)OC
LD50: 2240 mg/kg

C1=CCCCC1
LD50: 1950 mg/kg

O=C1C=CC[C@@H]2[C@H]3CCCN4CCC[C@@H](CN12)[C@@H]34
LD50: 196 mg/kg

CCCOCN(C(=O)CCl)c1c(C)cccc1OCC
LD50: 2100 mg/kg

CCCC[P+](CCCC)(CCCC)Cc1ccc(Cl)s1
LD50: 455 mg/kg

Cc1cccc2ccccc12
LD50: 1840 mg/kg

C=Cc1ccc(CC)cn1
LD50: 1230 mg/kg

Cn1nc(-c2ccccc2)c2conc2c1=O
LD50: 1000 mg/kg

C=CC1OCC2(CO1)COC(C=C)OC2 (centres undefined)
LD50: 3250 mg/kg

CCCCOCCOCCOC(=O)CCCCC(=O)OCCOCCOCCCC
LD50: 6000 mg/kg

FC(F)(F)c1ccc(Cl)c(Cl)c1
LD50: 1150 mg/kg

CC(C)(C)C(=O)OCOC(=O)[C@@H]1N2C(=O)[C@@H](N=CN3CCCCCC3)[C@H]2SC1(C)C
LD50: 9500 mg/kg

O=S1c2ccccc2N(CCCN2CCN(CCO)CC2)c2cc(Cl)ccc21 (centres undefined)
LD50: 1000 mg/kg

CN(C)CCOc1ccnc(N)n1
LD50: 1500 mg/kg

O=C1C=CC(=O)N1c1ccccc1Cl
LD50: 520 mg/kg

NC(Cl)(Cl)c1nc(Cl)c(Cl)c(Cl)c1Cl
LD50: 1500 mg/kg

CCCCC(C)C(C)C(C)C(C)=O (centres undefined)
LD50: 8470 mg/kg

CCN(CC)CC#N
LD50: 160 mg/kg

CC(C)C(=O)OCCc1ccccc1
LD50: 5200 mg/kg

CCOP(=O)(SC(C)CC)N1CCSC1=O (centres undefined)
LD50: 57 mg/kg

O=C(O)Cc1ccccc1Nc1c(Cl)cc(Cl)c2ccccc12
LD50: 56.2 mg/kg

COc1c(OP(=O)(OC(C)C)OC(C)C)cnn(C)c1=O
LD50: 1.9 mg/kg

CCCCC(CC)COC(CBr)c1ccccc1 (centres undefined)
LD50: 250 mg/kg

Cc1ccc(-c2ccccc2)cc1
LD50: 2570 mg/kg

CC1=CCC2CC(CC3(CCC(C)C(C(C)C)O3)O2)OC(=O)C2C=C(C)C(O)C3OCC(=CC=CC(C)C1)C23O (centres undefined)
LD50: 2470 mg/kg

CCOC(=O)c1ccccc1O
LD50: 1320 mg/kg

CC=CC(=O)O
LD50: 1000 mg/kg

O=C(c1ccc2ccccc2n1)N1CCN=C1Nc1c(Cl)cccc1Cl
LD50: 44 mg/kg

Cc1ccc(OCC(=O)N[C@@H]2C(=O)N3[C@@H]2SC(C)(C)[C@@H]3C(=O)O)cc1Cl
LD50: 2250 mg/kg

COCN(C)N=O
LD50: 700 mg/kg

CC[C@@]1(O)C[N@@]2CC[C@H]1C[C@@H]2[C@@H](O)c1ccnc2ccc(OC)cc12
LD50: 600 mg/kg

C#CCCCC#C
LD50: 2300 mg/kg

CP(C)(=O)CN1C(=O)CN=C(c2ccccc2)c2cc(Cl)ccc21
LD50: 3110 mg/kg

c1ccc2c(c1)Cc1ccccc1N2
LD50: 2140 mg/kg

CC1(C)CNC(=NN=C(/C=C/c2ccc(C(F)(F)F)cc2)/C=C/c2ccc(C(F)(F)F)cc2)NC1
LD50: 1130 mg/kg

Nc1ccc2c3c([nH]c2c1)CCCC3
LD50: 290 mg/kg

N#CSc1ccc(N)cc1
LD50: 240 mg/kg

OCCN1CC1
LD50: 74 mg/kg

CC(C)CCN(C)C
LD50: 225 mg/kg

O=C1CC(c2cccc(Br)c2)C(=O)N1 (centres undefined)
LD50: 1750 mg/kg

CN1CCCCC1C(CO)(c1ccccc1)c1ccccc1 (centres undefined)
LD50: 410 mg/kg

O=C(O)c1cn(C2CC2)c2cc(Cl)c(F)cc2c1=O
LD50: 583 mg/kg

C(=Nc1ccc(N=Cc2ccco2)cc1)c1ccco1
LD50: 1220 mg/kg

CC(N)CSc1ccc(Cl)cc1 (centres undefined)
LD50: 600 mg/kg

CN1CCN(C2=Cc3ccccc3Oc3ccc(F)cc32)CC1
LD50: 646 mg/kg

CC(=O)C(NC(=O)C(C)C(O)C(C)NC(=O)C(NC(=O)c1nc(C(CC(N)=O)NCC(N)C(N)=O)nc(N)c1C)C(OC1OC(CO)C(O)C(O)C1(C)OC1OC(CO)C(O)C(O)(C(N)=O)C1O)c1cnc[nH]1)C(=O)NCCC1=NC(c2nc(C(N)=O)cs2)CS1 (centres undefined)
LD50: 649 mg/kg

CCOC(=O)C(C)(C)Oc1ccc(Cl)cc1
LD50: 940 mg/kg

CCOC(=O)c1c(N)sc2c1CCN(Cc1ccccc1)C2
LD50: 1200 mg/kg

COP(=S)(OC)SCc1ccc(SP(=S)(OC)OC)cc1
LD50: 265 mg/kg

COC(=O)c1c(Cl)c(Cl)c(C(=O)SC)c(Cl)c1Cl
LD50: 3300 mg/kg

O=C(Cl)Oc1cccc2ccccc12
LD50: 2550 mg/kg

CN(C)C(=O)COC(=O)Cc1ccc(OC(=O)c2ccc(NC(=N)N)cc2)cc1
LD50: 3000 mg/kg

COc1cc(C(=O)NC2CCCNC2)cc(OC)c1OC (centres undefined)
LD50: 2100 mg/kg

O=CNc1ccc(Cl)cc1
LD50: 750 mg/kg

CCB(CC)CC
LD50: 235 mg/kg

CCOc1ccccc1N1CCN(CCCCc2ccc3c(c2)CCC(=O)N3)CC1
LD50: 500 mg/kg

CCCCCCCCCCCCCCCC(=O)OC/C=C(C)/C=C/C=C(C)/C=C/C1=C(C)CCCC1(C)C
LD50: 7910 mg/kg

Nc1ccc(S(=O)(=O)O)cc1
LD50: 5380 mg/kg

COP(=S)(OC)SCn1nc(Cl)ccc1=O
LD50: 5 mg/kg

CNC(=O)ON=C1CSCCSC1
LD50: 400 mg/kg

CCC1(c2ccccc2)CCNC1=O (centres undefined)
LD50: 990 mg/kg

CCc1c(C)[nH]c2c1C(=O)C(CN1CCC3(CC1)OCCO3)CC2 (centres undefined)
LD50: 240 mg/kg

O=[N+]([O-])c1ccc(Oc2ccc(C(F)(F)F)cc2Cl)cc1
LD50: 1000 mg/kg

COC(=O)C1CCC(C(=O)OC)CC1 (centres undefined)
LD50: 2810 mg/kg

O=C1CCCO1
LD50: 1540 mg/kg

N#CCCCCC#N
LD50: 155 mg/kg

CN(C)CCCN1c2ccccc2C(C)(C)c2ccccc21
LD50: 1670 mg/kg and 1850 mg/kg

O=C(O)C(F)(F)C(F)(F)C(F)(F)C(F)(F)C(F)(F)C(F)F
LD50: 1440 mg/kg

CCCCC(CC)COP(OCC(CC)CCCC)OCC(CC)CCCC (centres undefined)
LD50: 6200 mg/kg

COc1ccc(CCC2=NCCc3cc(OC)c(OC)cc32)cc1OC
LD50: 900 mg/kg

O=C(CCCN1CCN(C(=O)OC2CCCCC2)CC1)c1ccc(F)cc1
LD50: 1080 mg/kg

Cc1cc(N(C)C)nc(Cl)n1
LD50: 1.25 mg/kg

Nc1ccc(C(=O)Nc2ccccc2N)cc1
LD50: 95 mg/kg

Cc1nn(C)c2c1NCc1ccccc1O2
LD50: 1360 mg/kg

Nc1ncc(C=Cc2ccc([N+](=O)[O-])o2)nn1
LD50: 250 mg/kg

O=C(O)Cc1ccccc1Nc1c(Cl)cc(O)cc1Cl
LD50: 190 mg/kg

COc1cc(N)c(C)cc1N(C)C
LD50: 29.7 mg/kg

CC1=CCC(C(C)C)C=C1 (centres undefined)
LD50: 5700 mg/kg

CON=CC1=CCCN(C)C1
LD50: 300 mg/kg

CN1C(C(=O)Nc2ccccn2)=C(O)c2sccc2S1(=O)=O
LD50: 79 mg/kg

Cn1c(=O)c2c(ncn2CCCCN2CCN(c3ccc(F)cc3)CC2)n(C)c1=O
LD50: 353 mg/kg

CCNC(C)Cc1cccc(C(F)(F)F)c1 (centres undefined)
LD50: 130 mg/kg

CC(C)=CCOC(=O)c1ccccc1
LD50: 4700 mg/kg

Cc1cc(N=Nc2ccc(S(=O)(=O)O)cc2)c(N)c(N=Nc2ccc(-c3ccc(N=Nc4cc(C)c(O)c(C(=O)O)c4)cc3)cc2)c1N
LD50: 9960 mg/kg

c1ccc([I+]c2ccccc2)cc1
LD50: 60 mg/kg

CN1CCCC(n2nc(Cc3ccc(Cl)cc3)c3ccccc3c2=O)CC1 (centres undefined)
LD50: 310 mg/kg and 580 mg/kg

C1C[C@H]2C[C@@H]1[C@H]1SSS[C@@H]21
LD50: 300 mg/kg

C=CC(=O)OCC[N+](C)(C)C
LD50: 500 mg/kg

c1ccc(-c2ccc(CCOc3ncnc4ccccc34)cc2)cc1
LD50: 1150 mg/kg

CCN1CCCC1CNC(=O)c1cc(Cl)cc(Cl)c1OCc1ccccc1 (centres undefined)
LD50: 576 mg/kg

Cc1cc(Cl)ccc1N=CN(C)C
LD50: 160 mg/kg

CC(=O)Oc1ccccc1C(=O)OC(=O)c1ccccc1OC(C)=O
LD50: 2200 mg/kg

O=S(=O)(Cl)CCCl
LD50: 240 mg/kg

[O-][n+]1c2ccccc2nc2ccccc21
LD50: 6600 mg/kg

O=COCc1ccccc1
LD50: 1400 mg/kg

CN1CCCN(C)C1=O
LD50: 1770 mg/kg

Oc1ccc2nc(C(F)(F)F)[nH]c2c1
LD50: 41 mg/kg

CCCCCOc1c(Br)cc(Br)cc1COCCN(CC)CC
LD50: 350 mg/kg

Cc1ccc2sc(C)nc2c1
LD50: 957 mg/kg

FC(F)(F)c1nc2c(C(F)(F)F)cc(Cl)cc2[nH]1
LD50: 1.66 mg/kg

CCOC(=O)N(c1cccc(C(=O)c2ccccc2)c1)S(=O)(=O)C(F)(F)F
LD50: 4700 mg/kg

C[N+]1(C)[C@@H]2CC[C@H]1C[C@@H](OC(=O)C(CO)c1ccccc1)C2 (some centres undefined)
LD50: 1050 mg/kg and 1900 mg/kg

COC(=O)CC(SP(=S)(OC)OC)C(=O)OC (centres undefined)
LD50: 1020 mg/kg

Brc1cnc[nH]1
LD50: 250 mg/kg

C/C=C/Cl
LD50: 1950 mg/kg

CCOc1ccccc1OS(=O)(=O)NC(O)=Nc1nc(OC)cc(OC)n1
LD50: 2910 mg/kg

NC(=O)C1(N2CCCCC2)CCN(CCCN2c3ccccc3CCc3ccccc32)CC1
LD50: 1020 mg/kg

C=C(C)CCl
LD50: 848 mg/kg

COP(=O)(OC)SCCSC
LD50: 20 mg/kg

CNc1c2c(nn1C)CCCC2
LD50: 1850 mg/kg

CC(=O)OC[C@H]1O[C@@H](n2ncc(=O)[nH]c2=O)[C@H](OC(C)=O)[C@@H]1OC(C)=O
LD50: 12000 mg/kg

CC1OCCO1
LD50: 2900 mg/kg

CN(C)C(=S)SCN1CCOCC1
LD50: 1500 mg/kg

CCCCOC(=O)COc1cc(Cl)c(Cl)cc1Cl
LD50: 481 mg/kg

CCCCCOc1ccc(C2SC(=O)NC2=O)cc1OCC (centres undefined)
LD50: 4330 mg/kg

CCN(COC)N=O
LD50: 540 mg/kg

CCCC(Cn1cncn1)c1ccc(Cl)cc1Cl (centres undefined)
LD50: 2120 mg/kg

CC(C)N=C1SC(=NOC(=O)N(C)SC(Cl)(Cl)Cl)C(C)(C)S1
LD50: 226 mg/kg

O=S1(=O)CC(Cl)C(Cl)C1 (centres undefined)
LD50: 482 mg/kg

CN1C(=O)CN=C(c2ccccc2F)c2c1ccc(NC(=O)N1CCOCC1)c2Cl
LD50: 1250 mg/kg

COC(C)CO (centres undefined)
LD50: 5710 mg/kg

C=C(Cl)C(OC(C)=O)OC(C)=O
LD50: 320 mg/kg

CCC(O)(COC(N)=O)c1ccccc1 (centres undefined)
LD50: 607 mg/kg

C#CC(C)(CCC=C(C)C)OC(C)=O (centres undefined)
LD50: 9620 mg/kg

CCCCCCCCCCCCSC#N
LD50: 1250 mg/kg

Fc1ccc(Br)c(F)c1
LD50: 300 mg/kg

NC(N)=O
LD50: 350 mg/kg

O=c1ccn(C2OC(COP(=O)(O)O)C(O)C2O)c(=O)[nH]1 (centres undefined)
LD50: 12000 mg/kg

CCCCC(CC)COC(=O)C(CC)CCCC (centres undefined)
LD50: 27000 mg/kg
